# From PubChem BioAssay AID330 (DTP/NCI, 2004)
# Where “and” joins values, the source holds several entries; their conditions need not be identical. Equal entries are not always repeated. Toxic doses and inconclusive results are not listed.
# Tested on: P388 leukemia ip, CD2F1 mice, survival T/C
# Assay: NCI In Vivo Anticancer Drug Screen. Data for tumor model P388 Leukemia (intraperitoneal) in CD2F1 (CDF1) mice
# Conditions: endpoint: median survival time, higher = longer survival
# Procedure, shortened: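 Mice carrying the transplanted tumor received test compound or vehicle. Survival was recorded in each group, and the value is the treated-group measurement divided by that of the vehicle-treated control group.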
# [1] = dose: 60.0 mg/kg/injection, schedule: Q01DX005 (ip), vehicle: saline with Tween-80
# [2] = dose: 120.0 mg/kg/injection, schedule: Q01DX005 (ip), vehicle: saline with Tween-80
# [3] = dose: 100.0 mg/kg/injection, schedule: Q04DX003 (ip), vehicle: saline
# [4] = dose: 240.0 mg/kg/injection, schedule: Q01DX005 (ip), vehicle: saline with Tween-80
# [5] = dose: 50.0 mg/kg/injection, schedule: Q01DX009 (ip), vehicle: saline
# [6] = dose: 100.0 mg/kg/injection, schedule: Q01DX009 (ip), vehicle: saline
# [7] = dose: 200.0 mg/kg/injection, schedule: Q01DX009 (ip), vehicle: saline
# [8] = dose: 12.5 mg/kg/injection, schedule: Q01DX009 (ip), vehicle: Klucel (hydroxypropylcellulose) (HPC)
# [9] = dose: 25.0 mg/kg/injection, schedule: Q01DX009 (ip), vehicle: Klucel (hydroxypropylcellulose) (HPC)
# [10] = dose: 50.0 mg/kg/injection, schedule: Q01DX009 (ip), vehicle: Klucel (hydroxypropylcellulose) (HPC)
# [11] = dose: 25.0 mg/kg/injection, schedule: Q01DX009 (ip), vehicle: saline
smiles,measurement,setting,value
CCOC(=O)C(CO)NC(=O)c1cnc2ccccc2c1 (stereo not drawn),T/C,[1],99 % of control
same,T/C,[2],97 % of control
COc1cccc2c1C(=O)c1c(O)c3c(c(O)c1C2=O)CC(O)(C(O)CO)CC3OC1CC(N2CCSCC2)C(O)C(C)O1 (stereo not drawn),T/C,"dose: 3.12 mg/kg/injection, schedule: Q04DX003 (ip), vehicle: saline",103 % of control
same,T/C,"dose: 6.25 mg/kg/injection, schedule: Q04DX003 (ip), vehicle: saline",110 % of control
same,T/C,"dose: 12.5 mg/kg/injection, schedule: Q04DX003 (ip), vehicle: saline",110 % of control and 112 % of control
same,T/C,"dose: 25.0 mg/kg/injection, schedule: Q04DX003 (ip), vehicle: saline",122 % of control
same,T/C,[3],122 % of control
CCC(CO)N=C(C1=C(O)c2ccccc2C1=O)c1ccccc1 (stereo not drawn),T/C,"dose: 100.0 mg/kg/injection, schedule: Q04DX002 (ip), vehicle: saline with Tween-80",104 % of control
same,T/C,"dose: 200.0 mg/kg/injection, schedule: Q04DX002 (ip), vehicle: saline with Tween-80",92 % of control
Cc1csc2ccc(Cl)cc12,T/C,"dose: 100.0 mg/kg/injection, schedule: Q01DX001 (ip), vehicle: Klucel (hydroxypropylcellulose) (HPC)",95 % of control
same,T/C,"dose: 200.0 mg/kg/injection, schedule: Q01DX001 (ip), vehicle: Klucel (hydroxypropylcellulose) (HPC)",107 % of control
same,T/C,"dose: 400.0 mg/kg/injection, schedule: Q01DX001 (ip), vehicle: Klucel (hydroxypropylcellulose) (HPC)",107 % of control
CCCCCCCCCCCCCCCCOc1ccc(OC)cc1C(=O)NNC(=S)SC,T/C,"dose: 50.0 mg/kg/injection, schedule: Q01DX009 (ip), vehicle: saline + alcohol",100 % of control
same,T/C,"dose: 100.0 mg/kg/injection, schedule: Q01DX009 (ip), vehicle: saline + alcohol",103 % of control
same,T/C,"dose: 200.0 mg/kg/injection, schedule: Q01DX009 (ip), vehicle: saline + alcohol",87 % of control
Nc1nnc(CCCCCCCc2nnc(N)o2)o1,T/C,[1],104 % of control
same,T/C,[2],99 % of control
same,T/C,[4],105 % of control
COc1cccc2c1C(=N)c1c(O)c3c(c(O)c1C2=O)C[C@@](O)(C(C)=O)C[C@@H]3OC1CC(N)C(O)C(C)O1 (stereo partly drawn),T/C,"dose: 0.5 mg/kg/injection, schedule: Q01DX009 (ip), vehicle: water",153 % of control
same,T/C,"dose: 0.75 mg/kg/injection, schedule: Q04DX003 (ip), vehicle: water",112 % of control
same,T/C,"dose: 1.0 mg/kg/injection, schedule: Q01DX009 (ip), vehicle: saline",158 % of control
same,T/C,"dose: 1.0 mg/kg/injection, schedule: Q01DX009 (ip), vehicle: water",153 % of control and 175 % of control
same,T/C,"dose: 1.5 mg/kg/injection, schedule: Q04DX003 (ip), vehicle: water",118 % of control
same,T/C,"dose: 2.0 mg/kg/injection, schedule: Q01DX009 (ip), vehicle: saline",153 % of control
same,T/C,"dose: 2.0 mg/kg/injection, schedule: Q01DX009 (ip), vehicle: water",155 % of control and 186 % of control
same,T/C,"dose: 3.0 mg/kg/injection, schedule: Q04DX003 (ip), vehicle: water",124 % of control
same,T/C,"dose: 3.24 mg/kg/injection, schedule: Q04DX003 (ip), vehicle: water",150 % of control
same,T/C,"dose: 4.0 mg/kg/injection, schedule: Q01DX009 (ip), vehicle: water",150 % of control and 157 % of control
same,T/C,"dose: 5.4 mg/kg/injection, schedule: Q04DX003 (ip), vehicle: water",161 % of control
same,T/C,"dose: 6.0 mg/kg/injection, schedule: Q04DX003 (ip), vehicle: water",123 % of control and 124 % of control
same,T/C,"dose: 8.0 mg/kg/injection, schedule: Q01DX009 (ip), vehicle: saline",91 % of control
same,T/C,"dose: 8.0 mg/kg/injection, schedule: Q01DX009 (ip), vehicle: water",88 % of control and 94 % of control
same,T/C,"dose: 9.0 mg/kg/injection, schedule: Q04DX003 (ip), vehicle: water",157 % of control
same,T/C,"dose: 12.0 mg/kg/injection, schedule: Q04DX003 (ip), vehicle: water",102 % of control
same,T/C,"dose: 15.0 mg/kg/injection, schedule: Q04DX003 (ip), vehicle: water",98 % of control
same,T/C,"dose: 24.0 mg/kg/injection, schedule: Q04DX003 (ip), vehicle: water",123 % of control
same,T/C,"dose: 48.0 mg/kg/injection, schedule: Q04DX003 (ip), vehicle: water",116 % of control
same,T/C,"dose: 96.0 mg/kg/injection, schedule: Q04DX003 (ip), vehicle: water",98 % of control
C=CCC(C(=O)OC)c1ccc(Cl)cc1 (stereo not drawn),T/C,"dose: 0.62 mg/kg/injection, schedule: Q01DX009 (ip), vehicle: saline",114 % of control
same,T/C,"dose: 1.25 mg/kg/injection, schedule: Q01DX009 (ip), vehicle: saline",98 % of control
same,T/C,"dose: 2.5 mg/kg/injection, schedule: Q01DX009 (ip), vehicle: saline",103 % of control
COc1cc(C2c3cc4c(cc3OC(N3CCCC3)C2C)OCO4)cc(OC)c1OC (stereo not drawn),T/C,[1],90 % of control
same,T/C,[2],93 % of control
same,T/C,[4],104 % of control
CCOc1nc(OC)c(Cc2c(OC)nc(OCC)c3c2CCCC3)c2c1CCCC2,T/C,"dose: 47.5 mg/kg/injection, schedule: Q01DX005 (ip), vehicle: saline + Tween-80 + alcohol",102 % of control
same,T/C,"dose: 95.0 mg/kg/injection, schedule: Q01DX005 (ip), vehicle: saline + Tween-80 + alcohol",90 % of control
same,T/C,"dose: 190.0 mg/kg/injection, schedule: Q01DX005 (ip), vehicle: saline + Tween-80 + alcohol",87 % of control
CC(C)=CC(=O)OCCN(C)C,T/C,[5],109 % of control
same,T/C,[6],93 % of control
same,T/C,[7],93 % of control
Nc1ccc(-c2csc(-c3ccc(Br)cc3)n2)cc1,T/C,[8],100 % of control
same,T/C,[9],91 % of control
same,T/C,[10],88 % of control
CC1CC(C)(C)N=C(CCC2CCCCCC2=O)O1 (stereo not drawn),T/C,"dose: 50.0 mg/kg/injection, schedule: Q04DX003 (ip), vehicle: saline with Tween-80",100 % of control
same,T/C,"dose: 100.0 mg/kg/injection, schedule: Q04DX003 (ip), vehicle: saline with Tween-80",100 % of control
same,T/C,"dose: 200.0 mg/kg/injection, schedule: Q04DX003 (ip), vehicle: saline with Tween-80",100 % of control
N#Cc1ccc[n+](Cc2c(Cl)cccc2Cl)c1,T/C,"dose: 6.25 mg/kg/injection, schedule: Q01DX009 (ip), vehicle: saline",121 % of control
same,T/C,"dose: 12.5 mg/kg/injection, schedule: Q01DX009 (ip), vehicle: saline",108 % of control and 112 % of control
same,T/C,[11],101 % of control and 115 % of control
same,T/C,[5],110 % of control and 97 % of control
CCN(CC)CCNc1ccc([N+](=O)[O-])cc1[N+](=O)[O-],T/C,"dose: 6.25 mg/kg/injection, schedule: Q01DX009 (ip), vehicle: Klucel (hydroxypropylcellulose) (HPC)",93 % of control
same,T/C,[8],105 % of control
same,T/C,[9],114 % of control
same,T/C,[10],99 % of control
Cc1ccccc1[B-]12OCC[N+]1(CNC(=O)C1=C(O)C3(O)C(=O)C4=C(O)c5c(O)cccc5C(C)(O)C4CC3C(N(C)C)C1=O)CCO2 (stereo not drawn),T/C,"dose: 50.0 mg/kg/injection, schedule: Q01DX005 (ip), vehicle: Klucel (hydroxypropylcellulose) (HPC)",110 % of control
same,T/C,"dose: 100.0 mg/kg/injection, schedule: Q01DX005 (ip), vehicle: Klucel (hydroxypropylcellulose) (HPC)",115 % of control
same,T/C,"dose: 200.0 mg/kg/injection, schedule: Q01DX005 (ip), vehicle: Klucel (hydroxypropylcellulose) (HPC)",108 % of control
O=[N+]([O-])c1cc(NC(=S)SCc2ccc(Cl)cc2)ccc1Cl,T/C,"dose: 25.0 mg/kg/injection, schedule: Q01DX009 (ip), vehicle: saline with Tween-80",106 % of control
same,T/C,[11],105 % of control
same,T/C,"dose: 50.0 mg/kg/injection, schedule: Q01DX009 (ip), vehicle: saline with Tween-80",100 % of control
same,T/C,[5],100 % of control
same,T/C,"dose: 50.0 mg/kg/injection, schedule: Q01DX009 (ip), vehicle: suspension in saline",109 % of control
same,T/C,"dose: 100.0 mg/kg/injection, schedule: Q01DX009 (ip), vehicle: saline with Tween-80",106 % of control
same,T/C,[6],107 % of control
same,T/C,"dose: 100.0 mg/kg/injection, schedule: Q01DX009 (ip), vehicle: suspension in saline",108 % of control
same,T/C,"dose: 200.0 mg/kg/injection, schedule: Q01DX009 (ip), vehicle: saline with Tween-80",106 % of control
same,T/C,[7],110 % of control
same,T/C,"dose: 200.0 mg/kg/injection, schedule: Q01DX009 (ip), vehicle: suspension in saline",121 % of control
O=C1OCC(Cc2ccc3c(c2)OCO3)C1Cc1ccc2c(c1)OCO2 (stereo not drawn),T/C,[5],109 % of control
same,T/C,[6],93 % of control
same,T/C,[7],99 % of control
CNCC(CO)C(C)(C)C (stereo not drawn),T/C,[3],101 % of control
same,T/C,"dose: 200.0 mg/kg/injection, schedule: Q04DX003 (ip), vehicle: saline",92 % of control
